Experimental data published in ChEMBL document CHEMBL3217495, “Interaction of long telomeric DNAs with macrocyclic hexaoxazole as a G-quadruplex ligand” (Medchemcomm, 2013).
Calls of active or inactive are those of the source. No cut-off for these calls is given here.

Tests used:
[1] = Binding affinity to telo24 G-quadruplex DNA (unknown origin) assessed as compound:telo24 complex formation at ratio of 2:1 after 14 hrs by electrophoresis mobility shift assay
[2] = Stabilization of telo96 G-quadruplex DNA (unknown origin) assessed as melting temperature at 16 eq. by spectropolarimeter analysis in presence of KCl (reference value: 55 degC)
[3] = Stabilization of telo72 G-quadruplex DNA (unknown origin) assessed as melting temperature at 12 eq. by spectropolarimeter analysis in presence of KCl (reference value: 55 degC)
[4] = Stabilization of telo48 G-quadruplex DNA (unknown origin) assessed as melting temperature at 8 eq. by spectropolarimeter analysis in presence of KCl (Rvb= 57 degC)
[5] = Stabilization of telo24 G-quadruplex DNA (unknown origin) assessed as melting temperature at 4 eq. by spectropolarimeter analysis in presence of KCl (reference value: 59 degC)
[6] = Binding affinity to telo96 G-quadruplex DNA (unknown origin) assessed as change of topology from hybrid-type to anti-parallel form by CD spectrometry in presence of KCl
[7] = Binding affinity to telo72 G-quadruplex DNA (unknown origin) assessed as change of topology from hybrid-type to anti-parallel form by CD spectrometry in presence of KCl
[8] = Binding affinity to telo48 G-quadruplex DNA (unknown origin) assessed as change of topology from hybrid-type to anti-parallel form by CD spectrometry in presence of KCl
[9] = Binding affinity to telo24 G-quadruplex DNA (unknown origin) assessed as change of topology from hybrid-type to anti-parallel form by CD spectrometry in presence of KCl
[10] = Binding affinity to telo96 G-quadruplex DNA (unknown origin) assessed as appearance of new bands with longer migration distances after 14 hrs by electrophoresis mobility shift assay
[11] = Binding affinity to telo72 G-quadruplex DNA (unknown origin) assessed as appearance of new bands with longer migration distances after 14 hrs by electrophoresis mobility shift assay
[12] = Binding affinity to telo48 G-quadruplex DNA (unknown origin) assessed as appearance of new bands with longer migration distances after 14 hrs by electrophoresis mobility shift assay
[13] = Binding affinity to telo24 G-quadruplex DNA (unknown origin) assessed as appearance of new bands with longer migration distances after 14 hrs by electrophoresis mobility shift assay

Activity [1]: Active | Tm [2]: 70 °C | Tm [3]: 73 °C | Tm [4]: 76 °C | Tm [5]: 75 °C | Activity [6]: Active | Activity [7]: Active | Activity [8]: Active | Activity [9]: Active | Activity [10]: Active | Activity [11]: Active | Activity [12]: Active | Activity [13]: Active
Structure (SMILES): NCCCC[C@@H]1NC(=O)c2coc(n2)-c2coc(n2)-c2coc(n2)[C@H](CCCCN)NC(=O)c2coc(n2)-c2coc(n2)-c2coc1n2
